Data reported in patent publication US20230077514A1, “METHODS FOR MODULATING CALORIE CONSUMPTION” (Duke University, priority 2020, published 2023).

Key:
cervical vagus nerve = experiment: Whole nerve electrophysiology of the cervical vagus during duodenal sugar perfusion; assay type: in vivo, mice; details: wild-type mice; sucrose 300 mM, D-glucose 150 mM, fructose 150 mM, galactose 150 mM, maltodextrin 8%, α-MGP 150 mM, sucralose 15 mM, acesulfame K 15 mM, saccharin 15 mM
Experimental: FIG. 1. […] Model: sugars are perfused into the duodenal lumen while nerve activity is recorded from the cervical vagus of anesthetized wild-type mice.
The proximal duodenum was perfused with sugars, thus bypassing any gustatory or gastric activation. Sugars were tested based on the following properties: both caloric content and sweet taste (sucrose [300 mM], D-glucose [150 mM], […], galactose [150 mM]), calorie-only (maltodextrin [8%], alpha-methylglucopyranoside (α-MGP) [150 mM]), or taste-only (sucralose [15 mM], acesulfame-K [15 mM], saccharin [15 mM]) (FIG. 1, FIG. 2, FIG. 3, FIG. 4).

[1] = test system: enteroendocrine cells and nodose ganglia neurons; details: 10 mM glucose; cited from earlier work
Cck_tdTomato+ cells = experiment: Calcium activity of cultured Cck_tdTomato+ cells stimulated with sugars; assay type: cell-based, mice; details: D-glucose 20 mM, sucralose 2 mM, maltodextrin 1%; 49 cells
Experimental: Dissociated vagal neurons were cultured to test whether the neurons are able to sense the different sugars. The neurons were stimulated with three consecutive sugars (D-glucose [20 mM], sucralose [2 mM], and maltodextrin [1%]) followed by KCI [50 mM] as an activity control. […] To determine how individual neuropod cells respond to taste and calorie properties, cultured Cck_tdTomato+ cells were stimulated with the same sugars, counterbalancing for order effect, and calcium activity was recorded using KCI [50 mM] as a final activity control. Of the 49 cells imaged, 18.4% responded to all types of sugar, 36.7% responded to only D-glucose, 20.4% to only maltodextrin, and 12.2% to only sucralose (n = 49 cells, n = 3 mice; FIG. 13). […] Cck_tdTomato+ cells were co-cultured with nodose neurons to determine whether neuropod cells were transducing different sugar stimuli onto the same vagal neurons. Patch-clamp electrophysiology, in voltage-clamp, was used to record neuron activity in response to neuropod cell exposure to D-glucose [20 mM] and sucralose [2 mM] in alternating order (FIG. 14). From the 18 pairs recorded, neuropod cells transduced the sugar stimuli and elicited excitatory post-synaptic currents in connected neurons in response to both stimuli in 6 pairs, to only D-glucose in 8 pairs, and to sucralose alone in 4 pairs (FIG. 14). […]

vagal nodose neurons = experiment: Cultured dissociated vagal neurons stimulated with sugars; assay type: cell-based; details: D-glucose 20 mM; for response of vagal nodose neurons cultured alone: sucralose 2 mM, maltodextrin 1%, n = 59 neurons
Experimental: (§1) Dissociated vagal neurons were cultured to test whether the neurons are able to sense the different sugars. The neurons were stimulated with three consecutive sugars (D-glucose [20 mM], sucralose [2 mM], and maltodextrin [1%]) followed by KCI [50 mM] as an activity control. […] To determine how individual neuropod cells respond to taste and calorie properties, cultured Cck_tdTomato+ cells were stimulated with the same sugars, counterbalancing for order effect, and calcium activity was recorded using KCI [50 mM] as a final activity control. Of the 49 cells imaged, 18.4% responded to all types of sugar, 36.7% responded to only D-glucose, 20.4% to only maltodextrin, and 12.2% to only sucralose (n = 49 cells, n = 3 mice; FIG. 13). […] Cck_tdTomato+ cells were co-cultured with nodose neurons to determine whether neuropod cells were transducing different sugar stimuli onto the same vagal neurons. Patch-clamp electrophysiology, in voltage-clamp, was used to record neuron activity in response to neuropod cell exposure to D-glucose [20 mM] and sucralose [2 mM] in alternating order (FIG. 14). From the 18 pairs recorded, neuropod cells transduced the sugar stimuli and elicited excitatory post-synaptic currents in connected neurons in response to both stimuli in 6 pairs, to only D-glucose in 8 pairs, and to sucralose alone in 4 pairs (FIG. 14). Thus, neuropod cells are heterogenous in their response and transduction of caloric and non-caloric stimuli to vagal neurons.

[2] = test system: nodose neurons co-cultured with Cck_tdTomato+ cells; experiment: Patch-clamp electrophysiology of nodose neurons co-cultured with Cck_tdTomato+ cells; assay type: cell-based; details: D-glucose 20 mM, sucralose 2 mM; for peak excitatory post-synaptic currents, D-glucose vs sucralose: n = 18 pairs; for co-culture pairs responding to this stimulus only / co-culture pairs with excitatory post-synaptic currents in response to only this stimulus: of 18 pairs
Experimental: as §1

duodenal Cck cells = experiment: Vagal recording with intraluminal 532 nm laser silencing of duodenal Cck (neuropod) cells; assay type: in vivo; details: Cck_Halo mice; sucrose 300 mM, α-mgp 150 mM, sucralose 15 mM
Experimental: FIG. 9. Model: intraluminal 532 nm laser activates NpH3 chloride channels to silence duodenal Cck cells in CckCRE_NpH3 mice.
Using whole nerve electrophysiology of the cervical vagus nerve, it was confirmed that vagal activity increases in the presence of luminal sugars. Kaelberer et al., Science 361 (6408) (2018). The proximal duodenum was perfused with sugars, thus bypassing any gustatory or gastric activation. Sugars were tested based on the following properties: both caloric content and sweet taste (sucrose [300 mM], D-glucose [150 mM], fructose [150 mM], galactose [150 mM]), calorie-only (maltodextrin [8%], alpha-methylglucopyranoside (α-MGP) [150 mM]), or taste-only (sucralose [15 mM], acesulfame-K [15 mM], saccharin [15 mM]) (FIG. 1, FIG. 2, FIG. 3, FIG. 4). […] Intraluminal application of the 532 nm laser eliminated the vagal response to sucrose [300 mM], α-mgp [150 mM], and sucralose [15 mM] (n ≥ 5, p < 0.001) (FIG. 10 and FIG. 11; laser activation and wild-type controls). Thus, neuropod cells are required to sense both the calorie and taste properties of sugar and communicate these signals onto vagal neurons.
Cck neuropod cells in the duodenum express receptors for fatty acids (FIG. 69), analyzed by bulk sequencing Cck-positive and Cck-negative epithelial cells in the duodenum of CckGFP mice. Thus, CCK cells in the duodenum may signal the presence of fatty acids to the vagus nerve. To test this, the silencing optogenetic channel was expressed in Cck cells of mice. […] In the duodenum, there is overlap in cells expressing CCK and the vesicular glutamate transporter 1 (Vglut1), required for release of the neurotransmitter glutamate. To test whether glutamate is required as a signaling molecule for fat transduction to the vagus nerve, a cocktail of glutamate receptor inhibitors was perfused through the duodenum of wild type mice. Blockade of ionotropic and metabotropic glutamate receptors blocked vagal firing elicited by glutamate (FIG. 71). […] In an initial baseline test, mice freely explore an arena for 20 minutes, during which their position in the arena measured. […]

[3] = test system: murine small intestinal organoids; experiment: Glutamate release assay on murine small intestinal organoids; assay type: cell-based, mouse; details: sucrose 300 mM, α-MGP 150 mM, sucralose 15 mM; PBS control 2.632 ± 1.280
Experimental: Slc5a1+ Cck-GFP cells express transcripts for the vesicular glutamate transporters Slc17a6, Slc17a7, Slc17a8 and the excitatory neurotransmitter transporters Slc1a1, Slc1a2, and Slc1a3 (FIG. 4). […] A glutamate release assay was performed on murine small intestinal organoids to determine if glutamate release was stimuli specific (FIG. 24-left). α-MGP was used for a caloric stimulus with no sweet taste, because it is not metabolized once it enters the cell and thus allowed for isolation of cell entry. After nutrient stimulation, the glutamate concentration in the supernatant was 2.632 ± 1.280 ng/µL for PBS control, 13.460 ± 1.724 ng/µL for sucrose [300 mM], 18.183 ± 7.904 ng/µL for α-MGP [150 mM], and 6.053 ± 1.169 ng/µL for sucralose [15 mM].

SMILES	vagal response (firing) to intraduodenal sugar vs baseline (cervical vagus nerve)	activation of a nodose neuron by itself [1]	response of connected neuron to stimulus applied to the enteroendocrine cell [1]	cells responding to only this sugar (Cck_tdTomato+ cells)	response of vagal nodose neurons cultured alone (vagal nodose neurons)	neurons with a (small) response (vagal nodose neurons; 59 neurons)	peak excitatory post-synaptic currents, D-glucose vs sucralose [2]	co-culture pairs responding to this stimulus only [2]	co-culture pairs with excitatory post-synaptic currents in response to only this stimulus [2]	vagal response with Cck cells silenced by 532 nm laser (duodenal Cck cells)	glutamate concentration in the supernatant after stimulation [3]
O=C[C@H](O)[C@@H](O)[C@H](O)[C@H](O)CO [D-glucose]	responds significantly	did not activate	induced excitatory post-synaptic potentials and action potential spikes	36.7%	do not respond	2 of 59	not significantly different	44.4%	8 pairs	–	–
OC[C@H]1O[C@H](O[C@]2(CCl)O[C@H](CCl)[C@@H](O)[C@@H]2O)[C@H](O)[C@@H](O)[C@H]1Cl [sucralose]	responds significantly	–	–	12.2%	do not respond	–	not significantly different	22.2%	4 pairs	eliminated	6.053 ± 1.169 ng/µL
